Measurements: US11976068B2 (CHIMERIX, INC., priority 2015, dated 2024)

Key:
[1] = system: cleaved cytokeratin 18 (cCK18); assay: Phase I trial, serum M30 assay; assay type: in vivo, human
Experimental: Serum levels of cleaved cytokeratin 18 (cCK18) were assessed using the M30 assay and serum levels of total cytokeratin 18 (CK18) were assessed using the M65 assay (Perviva A.B., Sweden). Assessments of other tumor-specific markers were also evaluated per standard of care.
Given the heterogeneity of the tumor types in the enrolled patients, no widely used biomarker was available to uniformly assay all patient samples. In particular, the serum M30 assay is able to detect a caspase-cleaved form of cytokeratin-18 that occurs during apoptosis, which is useful in a heterogeneous study of solid tumors because most solid tumors express cytokeratin-18. The M30 sandwich ELISA has been used extensively in clinical trials as biomarkers of cell death induced by a variety of different cancer chemotherapeutic agents in a spectrum of different solid tumors. In addition to the serum M30 assay, the M65 sandwich ELISA assay, which has also been used in clinical studies to detect increases in total cytokeratin 18 that can occur with tumor necrosis and disease progression, was used to differentiate tumor apoptosis from necrosis.

[2] = Phase I trial, safety and toxicity assessment
[3] = Pat # 1, NSCLC, 125 mg every three weeks, dose escalation phase
[4] = Pat # 2, Appendiceal adenocarcinoma, 250 mg every three weeks, dose escalation phase
[5] = Pat # 3, Uterine cancer, 375 mg every three weeks, dose escalation phase
[6] = Pat # 4, Renal cancer, 500 mg every three weeks, dose escalation phase
[7] = Pat # 5, Breast cancer, 625 mg every three weeks, dose escalation phase
[8] = Pat # 6, Prostate adenocarcinoma, 625 mg every three weeks, dose escalation phase
[9] = Pat # 7, Small cell lung cancer, 625 mg every three weeks, dose escalation phase
[10] = Pat # 8, Colon adenocarcinoma, 625 mg every three weeks, dose escalation phase
[11] = Pat # 9, Spindle cell sarcoma, 625 mg every three weeks, dose escalation phase
[12] = Pat # 10, Ovarian, 625 mg every three weeks, dose escalation phase
[13] = Pat # 11, Uterine cancer, 625 mg every three weeks, expansion phase
[14] = Pat # 13, Ovarian cancer, 625 mg every three weeks, expansion phase
[15] = Pat # 14, Gall bladder cancer, 625 mg every three weeks, expansion phase
[16] = Pat # 15, Desmoplastic small round cell tumor (DSRCT), 625 mg every three weeks, expansion phase
[17] = Pat # 16, Colon cancer, 625 mg every three weeks, expansion phase
[18] = Pat # 17, Prostate adenocarcinoma, 625 mg every three weeks, expansion phase
[19] = Pat # 18, Ovarian cancer, 625 mg every three weeks, expansion phase
[20] = Pat # 19, Prostate adenocarcinoma, 625 mg every three weeks, expansion phase
[21] = Pat # 20, Uterine Cancer, 625 mg every three weeks, expansion phase

Cc1ccccc1CN1C(=O)C2=C(CCN(Cc3ccccc3)C2)N2CCN=C12 [ONC201, 7-benzyl-4-(2-methylbenzyl)-2,4,6,7,8,9-hexahydroimidazo [1,2-a]pyrido[3,4-e]pyrimidin-5(1H)-one]
M30 Induction (>50%) ([1]; Pat # 1, NSCLC, 125 mg): No | M30 Induction (>50%) ([1]; Pat # 2, Appendiceal cancer, 250 mg): No | M30 Induction (>50%) ([1]; Pat # 3, Uterine cancer, 375 mg): Yes | M30 Induction (>50%) ([1]; Pat # 4, Renal cancer, 500 mg): No | M30 Induction (>50%) ([1]; Pat # 5, Breast cancer, 625 mg): Yes | M30 Induction (>50%) ([1]; Pat # 6, Prostate adenocarcinoma, 625 mg): Yes | M30 Induction (>50%) ([1]; Pat # 7, Small cell lung cancer, 625 mg): Yes | M30 Induction (>50%) ([1]; Pat # 8, Colon adenocarcinoma, 625 mg): Yes | M30 Induction (>50%) ([1]; Pat # 9, Spindle cell sarcoma, 625 mg): No | M30 Induction (>50%) ([1]; Pat # 10, Ovarian, 625 mg): No | number of patients with induction in the M30 assay ([1]; dose escalation phase, after a single dose, most often on day 21 post-treatment): Four | only adverse event possibly attributed to ONC201, expansion phase ([2]; 10 patients, 625 mg every 3 weeks): vomiting in one patient | only adverse event possibly attributed to ONC201, dose escalation phase ([2]; 10 patients, 125-625 mg every 3 weeks): low grade fever in one patient | Adverse Events Grade 1 [2, 3]: Fever | Adverse Events Grade 2-4 [2, 3]: 0 | Adverse Events Grade 1 [2, 4]: 0 | Adverse Events Grade 2-4 [2, 4]: 0 | Adverse Events Grade 1 [2, 5]: 0 | Adverse Events Grade 2-4 [2, 5]: 0 | Adverse Events Grade 1 [2, 6]: 0 | Adverse Events Grade 2-4 [2, 6]: 0 | Adverse Events Grade 1 [2, 7]: 0 | Adverse Events Grade 2-4 [2, 7]: 0 | Adverse Events Grade 1 [2, 8]: 0 | Adverse Events Grade 2-4 [2, 8]: 0 | Adverse Events Grade 1 [2, 9]: 0 | Adverse Events Grade 2-4 [2, 9]: 0 | Adverse Events Grade 1 [2, 10]: 0 | Adverse Events Grade 2-4 [2, 10]: 0 | Adverse Events Grade 1 [2, 11]: 0 | Adverse Events Grade 2-4 [2, 11]: 0 | Adverse Events Grade 1 [2, 12]: 0 | Adverse Events Grade 2-4 [2, 12]: 0 | Adverse Events Grade 1 [2, 13]: 0 | Adverse Events Grade 2-4 [2, 13]: 0 | Adverse Events Grade 1 ([2]; Pat # 12, Uterine cancer, 625 mg every three weeks, expansion phase): 0 | Adverse Events Grade 1 [2, 14]: Vomiting | Adverse Events Grade 2-4 [2, 14]: 0 | Adverse Events Grade 1 [2, 15]: 0 | Adverse Events Grade 2-4 [2, 15]: 0 | Adverse Events Grade 1 [2, 16]: 0 | Adverse Events Grade 2-4 [2, 16]: 0 | Adverse Events Grade 1 [2, 17]: 0 | Adverse Events Grade 2-4 [2, 17]: 0 | Adverse Events Grade 1 [2, 18]: 0 | Adverse Events Grade 2-4 [2, 18]: 0 | Adverse Events Grade 1 [2, 19]: 0 | Adverse Events Grade 2-4 [2, 19]: 0 | Adverse Events Grade 1 [2, 20]: 0 | Adverse Events Grade 2-4 [2, 20]: 0 | Adverse Events Grade 1 [2, 21]: 0 | Adverse Events Grade 2-4 [2, 21]: 0 | drug-related adverse events ([2]; oral 125 to 625 mg every 3 weeks): No Grade >1 drug-related adverse events occurred | recommended phase II dose (RP2D) ([2]; oral, once every 3 weeks): 625 mg | Laboratory studies and physical exams ([2]; phase I patients): did not reveal any drug-related abnormalities | cardiovascular assessments ([2]; phase I patients): no drug-related effects
